Results reported in PubChem BioAssay (NCI).
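How tested: cells in 96-well plates exposed to compound for 48 hours at five concentrations. GI50: concentration for 50% inhibition of growth. The concentration for full growth arrest is given as TGI.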

Legend:
Test in all cases: NCI anticancer screen, dose series, 48 h
DU-145 prostate = system: DU-145 prostate
OVCAR-5 ovarian = system: OVCAR-5 ovarian
NCI/ADR-RES ovarian = system: NCI/ADR-RES ovarian
OVCAR-8 ovarian = system: OVCAR-8 ovarian
RXF 393 renal = system: RXF 393 renal
MDA-MB-231 breast = system: MDA-MB-231 breast
HS 578T breast = system: HS 578T breast
NCI-H522 lung = system: NCI-H522 lung
HL-60(TB) leukemia = system: HL-60(TB) leukemia
HOP-62 NSCLC = system: HOP-62 NSCLC
SNB-19 CNS = system: SNB-19 CNS
786-0 renal = system: 786-0 renal
ACHN renal = system: ACHN renal
SK-MEL-5 melanoma = system: SK-MEL-5 melanoma
HT29 colon = system: HT29 colon
U251 CNS = system: U251 CNS
HCT-116 colon = system: HCT-116 colon
MCF7 breast = system: MCF7 breast
BT-549 breast = system: BT-549 breast
MDA-MB-435 = system: MDA-MB-435
SN12C renal = system: SN12C renal
NCI-H460 lung = system: NCI-H460 lung
UO-31 renal = system: UO-31 renal
SNB-75 CNS = system: SNB-75 CNS
IGROV1 ovarian = system: IGROV1 ovarian
HCC-2998 colon = system: HCC-2998 colon
K-562 leukemia = system: K-562 leukemia
TK-10 renal = system: TK-10 renal
NCI-H23 lung = system: NCI-H23 lung
CAKI-1 renal = system: CAKI-1 renal
SK-MEL-28 melanoma = system: SK-MEL-28 melanoma
COLO 205 colon = system: COLO 205 colon
HCT-15 colon = system: HCT-15 colon
MOLT-4 leukemia = system: MOLT-4 leukemia
UACC-257 melanoma = system: UACC-257 melanoma
CCRF-CEM leukemia = system: CCRF-CEM leukemia
SR leukemia = system: SR leukemia
EKVX NSCLC = system: EKVX NSCLC
SF-539 CNS = system: SF-539 CNS
HOP-92 NSCLC = system: HOP-92 NSCLC
RPMI-8226 leukemia = system: RPMI-8226 leukemia
SF-295 CNS = system: SF-295 CNS
A498 renal = system: A498 renal
SK-OV-3 ovarian = system: SK-OV-3 ovarian
PC-3 prostate = system: PC-3 prostate
SK-MEL-2 melanoma = system: SK-MEL-2 melanoma
KM12 colon = system: KM12 colon
SF-268 CNS = system: SF-268 CNS
M14 melanoma = system: M14 melanoma
OVCAR-3 ovarian = system: OVCAR-3 ovarian
A549 NSCLC = system: A549 NSCLC
NCI-H226 lung = system: NCI-H226 lung
SW-620 colon = system: SW-620 colon
MALME-3M melanoma = system: MALME-3M melanoma
LOX IMVI melanoma = system: LOX IMVI melanoma
OVCAR-4 ovarian = system: OVCAR-4 ovarian
UACC-62 melanoma = system: UACC-62 melanoma
T-47D breast = system: T-47D breast

COc1ccc2c(c1)C(=O)c1c-2n(CCCN2CCOCC2)c(=O)c2ccccc12
GI50 (DU-145 prostate): 2.39 µM | TGI (DU-145 prostate): 10.2 µM | GI50 (OVCAR-5 ovarian): 6.18 µM | TGI (OVCAR-5 ovarian): > 100 µM | GI50 (NCI/ADR-RES ovarian): 3.8 µM | TGI (NCI/ADR-RES ovarian): > 93.1 µM | GI50 (OVCAR-8 ovarian): 3.45 µM | TGI (OVCAR-8 ovarian): > 100 µM | GI50 (RXF 393 renal): 3.22 µM | TGI (RXF 393 renal): > 21.6 µM | GI50 (MDA-MB-231 breast): 15.4 µM | TGI (MDA-MB-231 breast): > 100 µM | GI50 (HS 578T breast): 8.95 µM | TGI (HS 578T breast): > 100 µM | GI50 (NCI-H522 lung): 1.52 µM | TGI (NCI-H522 lung): 13.9 µM | GI50 (HL-60(TB) leukemia): 4.59 µM | TGI (HL-60(TB) leukemia): > 100 µM | GI50 (HOP-62 NSCLC): 1.7 µM | TGI (HOP-62 NSCLC): 6.16 µM | GI50 (SNB-19 CNS): 2.65 µM | TGI (SNB-19 CNS): 30.9 µM | GI50 (786-0 renal): 2.38 µM | TGI (786-0 renal): 9.46 µM | GI50 (ACHN renal): 1.69 µM | TGI (ACHN renal): 4.07 µM | GI50 (SK-MEL-5 melanoma): 1.37 µM | TGI (SK-MEL-5 melanoma): 2.68 µM | GI50 (HT29 colon): 2.19 µM | TGI (HT29 colon): > 45 µM | GI50 (U251 CNS): 2.01 µM | TGI (U251 CNS): 11.6 µM | GI50 (HCT-116 colon): 1.66 µM | TGI (HCT-116 colon): 4.54 µM | GI50 (MCF7 breast): 0.291 µM | TGI (MCF7 breast): 13 µM | GI50 (BT-549 breast): 2.55 µM | TGI (BT-549 breast): 13.6 µM | GI50 (MDA-MB-435): 4.54 µM | TGI (MDA-MB-435): > 100 µM | GI50 (SN12C renal): 4.25 µM | TGI (SN12C renal): > 100 µM | GI50 (NCI-H460 lung): 0.561 µM | TGI (NCI-H460 lung): 3.58 µM | GI50 (UO-31 renal): 0.799 µM | TGI (UO-31 renal): 3.26 µM | GI50 (SNB-75 CNS): 3.86 µM | TGI (SNB-75 CNS): 23.1 µM | GI50 (IGROV1 ovarian): 1.87 µM | TGI (IGROV1 ovarian): > 100 µM | GI50 (HCC-2998 colon): 3.08 µM | TGI (HCC-2998 colon): 20.4 µM | GI50 (K-562 leukemia): 4.47 µM | TGI (K-562 leukemia): > 100 µM | GI50 (TK-10 renal): 4.62 µM | TGI (TK-10 renal): 57.2 µM | GI50 (NCI-H23 lung): 2.94 µM | TGI (NCI-H23 lung): 10.1 µM | GI50 (CAKI-1 renal): 1.79 µM | TGI (CAKI-1 renal): 8.07 µM | GI50 (SK-MEL-28 melanoma): 11.2 µM | TGI (SK-MEL-28 melanoma): > 100 µM | GI50 (COLO 205 colon): 2.81 µM | TGI (COLO 205 colon): > 41 µM | GI50 (HCT-15 colon): 3.64 µM | TGI (HCT-15 colon): > 100 µM | GI50 (MOLT-4 leukemia): 1.47 µM | TGI (MOLT-4 leukemia): > 100 µM | GI50 (UACC-257 melanoma): 4.46 µM | TGI (UACC-257 melanoma): > 31.5 µM | GI50 (CCRF-CEM leukemia): 1.19 µM | TGI (CCRF-CEM leukemia): > 20.7 µM | GI50 (SR leukemia): 0.579 µM | TGI (SR leukemia): > 32.6 µM | GI50 (EKVX NSCLC): 4.52 µM | TGI (EKVX NSCLC): > 89.2 µM | GI50 (SF-539 CNS): 2.17 µM | TGI (SF-539 CNS): 5.33 µM | GI50 (HOP-92 NSCLC): 8.39 µM | TGI (HOP-92 NSCLC): > 57.5 µM | GI50 (RPMI-8226 leukemia): 1.35 µM | TGI (RPMI-8226 leukemia): 5.59 µM | GI50 (SF-295 CNS): 1.35 µM | TGI (SF-295 CNS): 9.71 µM | GI50 (A498 renal): 1.87 µM | TGI (A498 renal): 5.48 µM | GI50 (SK-OV-3 ovarian): 3.27 µM | TGI (SK-OV-3 ovarian): 12.1 µM | GI50 (PC-3 prostate): 8.67 µM | TGI (PC-3 prostate): > 100 µM | GI50 (SK-MEL-2 melanoma): 14.5 µM | TGI (SK-MEL-2 melanoma): 63.4 µM | GI50 (KM12 colon): 3.64 µM | TGI (KM12 colon): 42.5 µM | GI50 (SF-268 CNS): 2.7 µM | TGI (SF-268 CNS): > 43.9 µM | GI50 (M14 melanoma): 2.85 µM | TGI (M14 melanoma): 7.87 µM | GI50 (OVCAR-3 ovarian): 2.94 µM | TGI (OVCAR-3 ovarian): 12.2 µM | GI50 (A549 NSCLC): 1.97 µM | TGI (A549 NSCLC): 8.41 µM | GI50 (NCI-H226 lung): 2.59 µM | TGI (NCI-H226 lung): 7.57 µM | GI50 (SW-620 colon): 2.31 µM | TGI (SW-620 colon): > 100 µM | GI50 (MALME-3M melanoma): 3.44 µM | TGI (MALME-3M melanoma): 18.7 µM | GI50 (LOX IMVI melanoma): 1.45 µM | TGI (LOX IMVI melanoma): 3.36 µM | GI50 (OVCAR-4 ovarian): 4.57 µM | TGI (OVCAR-4 ovarian): > 100 µM | GI50 (UACC-62 melanoma): 1.76 µM | TGI (UACC-62 melanoma): 5.87 µM | GI50 (T-47D breast): 1.55 µM | TGI (T-47D breast): 7.41 µM
